{
  "source": "patent US20150202168A1",
  "about": "“ORAL FILM FORMULATIONS COMPRISING DAPOXETINE AND TADALAFIL” (Sanovel Ilac Sanayi Ve Ticaret Anonim Sirketi, priority 2012, published 2015)",
  "origin": "cited, not measured here",
  "key": {"human body": {"tested_on": "human body", "conditions": "studies conducted"}, "[1]": {"conditions": "following oral administration"}, "[2]": {"conditions": "Int J Impot Res. 2006; 18(1):104-10"}},
  "data": [
    {"molecule": "CN1CC(=O)N2[C@H](c3ccc4c(c3)OCO4)c3[nH]c4ccccc4c3C[C@@H]2C1=O", "note": "[Tadalafil, (6R-trans)-6-(1,3-benzodioxol-5-yl)-2,3,6,7,12,12a-hexahydro-2-methyl-pyrazino[1′,2′:1,6]pyrido[3,4-b]indole-1,4-dione]", "values": [
      {"measurement": "solubility in water", "value": "poorly soluble"}
    ]},
    {"molecule": "Mogroside", "values": [
      {"measurement": "toxicity to human body", "setting": "human body", "value": "not toxic"}
    ]},
    {"molecule": "CN(C)[C@@H](CCOc1cccc2ccccc12)c1ccccc1", "note": "[dapoxetine]", "values": [
      {"measurement": "binding to the plasma proteins", "setting": "[1]", "value": "almost completely"},
      {"measurement": "interactions with PDE5 inhibitors", "setting": "[2]", "value": "does not have pharmaceutical interactions"}
    ]}
  ]
}
